Laboratory results from patent US20230355597A1, “COMPOUNDS, COMPOSITIONS, AND METHODS FOR THE TREATMENT AND PREVENTION OF AVIAN PATHOGENIC E. COLI (APEC)” (OHIO STATE INNOVATION FOUNDATION, priority 2018, published 2023).
Converted amounts (≈) assume the structure as drawn. Marks after values point to notes of the source that are not given here.

Columns and labels:
[1] = test system: APEC O78; assay: Loss of 260/280 nm absorbing materials assay; format: cell-based, avian pathogenic Escherichia coli (APEC); details: 2X MBC, 1 h, *P<0.05 vs DMSO
[2] = test system: intracellular APEC O78 in HD11 cells; assay: Intracellular survival assay (cidal SMs); details: O78, HD11, 6 h treatment; superscript = multiple of MIC
[3] = test system: intracellular APEC O78 in THP-1 cells; assay: Intracellular survival assay (cidal SMs); details: O78, THP-1, 6 h treatment; superscript = multiple of MIC
[4] = test system: APEC O2-211; format: cell-based, avian pathogenic Escherichia coli (APEC); details: APEC O2-211, M63 media; MIC/MBC
[5] = test system: biofilm embedded APEC O78; assay: MBEC High-throughput assay; format: cell-based, avian pathogenic Escherichia coli (APEC)
[6] = test system: intracellular APEC O2 in Caco-2 cells; assay: Intracellular survival assay (cidal SMs); details: O2, Caco-2, 6 h treatment; superscript = multiple of MIC
[7] = test system: APEC O109; format: cell-based, avian pathogenic Escherichia coli (APEC); details: APEC O109, M63 media; MIC/MBC
[8] = test system: APEC O1; format: cell-based, avian pathogenic Escherichia coli (APEC); details: APEC O1, M63 media; MIC/MBC
[9] = test system: APEC O35; format: cell-based, avian pathogenic Escherichia coli (APEC); details: APEC O35, M63 media; MIC/MBC
[10] = test system: intracellular APEC O78 in Caco-2 cells; assay: Intracellular survival assay (cidal SMs); details: O78, Caco-2, 6 h treatment; superscript = multiple of MIC
[11] = test system: APEC O8; format: cell-based, avian pathogenic Escherichia coli (APEC); details: APEC O8, M63 media; MIC/MBC
[12] = test system: intracellular APEC O1 in Caco-2 cells; assay: Intracellular survival assay (cidal SMs); details: O1, Caco-2, 6 h treatment; superscript = multiple of MIC
[13] = test system: intracellular APEC O78, O2, and O1 in infected Caco-2, HD11, and THP1 cells; assay: Intracellular survival assay (cidal SMs), summary over serotypes and cells; details: overall ranking
[14] = test system: APEC O15; format: cell-based, avian pathogenic Escherichia coli (APEC); details: APEC O15, M63 media; MIC/MBC
[15] = test system: intracellular APEC O2 in HD11 cells; assay: Intracellular survival assay (cidal SMs); details: O2, HD11, 6 h treatment; superscript = multiple of MIC
[16] = test system: intracellular APEC O1 in HD11 cells; assay: Intracellular survival assay (cidal SMs); details: O1, HD11, 6 h treatment; superscript = multiple of MIC
[17] = test system: APEC O78-53; format: cell-based, avian pathogenic Escherichia coli (APEC); details: APEC O78-53, M63 media; MIC/MBC
[18] = test system: APEC O1-63; format: cell-based, avian pathogenic Escherichia coli (APEC); details: APEC O1-63, M63 media; MIC/MBC
[19] = test system: APEC O18; format: cell-based, avian pathogenic Escherichia coli (APEC); details: APEC O18, M63 media; MIC/MBC
[20] = test system: intracellular APEC O1 in THP-1 cells; assay: Intracellular survival assay (cidal SMs); details: O1, THP-1, 6 h treatment; superscript = multiple of MIC
[21] = test system: APEC O78; format: cell-based, avian pathogenic Escherichia coli (APEC); details: APEC O78, M63 media; cell prints MIC/MBC
[22] = test system: APEC O115; format: cell-based, avian pathogenic Escherichia coli (APEC); details: APEC O115, M63 media; MIC/MBC
[23] = test system: Rif^r APEC O78; assay: In vivo efficacy of growth inhibitors in APEC infected broiler chickens
[24] = test system: intracellular APEC O2 in THP-1 cells; assay: Intracellular survival assay (cidal SMs); details: O2, THP-1, 6 h treatment; superscript = multiple of MIC
[25] = test system: APEC O78; assay: Confocal microscopy bacterial cytological profiling; format: cell-based, avian pathogenic Escherichia coli (APEC); details: 2X MBC
Method: Confocal and scanning electron microscopy. Confocal microscopy was used for bacterial cytological profiling (BCP) to identify the cellular pathways targeted by SMs as described previously. […] After incubation, treated cultures were centrifuged, washed, and resuspended in 100 μL PBS. […] Cultures were then centrifuged, washed, and resuspended in PBS to 1⁄10th volume of the original cultures.

[26] = test system: APEC O2; format: cell-based, avian pathogenic Escherichia coli (APEC); details: APEC O2, M63 media; MIC/MBC

## CC(=O)OC(C(Br)C(=O)c1ccc([N+](=O)[O-])cc1)C(Cl)(Cl)Cl (centres unmarked) [SM10]
[1]; 260 nm absorbing material in supernatant
  Absorbance 260: 3.98*
[1]; 280 nm absorbing material in supernatant
  Absorbance 280: 2.73*
[2]
  SMs intracellular APEC clearance concentration: 50^b µM
[3]
  SMs intracellular APEC clearance concentration: 100^c µM
[4]
  MBC: 50 µM (≈ 21.7 µg/mL)
  MIC: 25 µM (≈ 10.8 µg/mL)
[5]; at 1X MIC
  reduction of biofilms embedded APEC: significantly (P<0.05) reduced
[5]; biofilm embedded APEC O78, superscript = multiple of MIC (footnote)
  MBEC: >200 µM
[6]
  SMs intracellular APEC clearance concentration: 100^c µM
[7]
  MBC: 50 µM (≈ 21.7 µg/mL)
  MIC: 25 µM (≈ 10.8 µg/mL)
[8]
  MBC: 25 µM (≈ 10.8 µg/mL)
  MIC: 25 µM (≈ 10.8 µg/mL)
[9]
  MBC: 50 µM (≈ 21.7 µg/mL)
  MIC: 25 µM (≈ 10.8 µg/mL)
[10]
  SMs intracellular APEC clearance concentration: 100^c µM
[11]
  MBC: 50 µM (≈ 21.7 µg/mL)
  MIC: 50 µM (≈ 21.7 µg/mL)
[12]
  SMs intracellular APEC clearance concentration: 100^c µM
[13]
  effectiveness in clearing intracellular APEC serotypes in all tested cells: most effective
[14]
  MBC: 100 µM (≈ 43.3 µg/mL)
  MIC: 50 µM (≈ 21.7 µg/mL)
[15]
  SMs intracellular APEC clearance concentration: 100^c µM
[16]
  SMs intracellular APEC clearance concentration: >100 µM
[17]
  MBC: 50 µM (≈ 21.7 µg/mL)
  MIC: 25 µM (≈ 10.8 µg/mL)
[18]
  MBC: 100 µM (≈ 43.3 µg/mL)
  MIC: 50 µM (≈ 21.7 µg/mL)
[19]
  MBC: 100 µM (≈ 43.3 µg/mL)
  MIC: 25 µM (≈ 10.8 µg/mL)
[20]
  SMs intracellular APEC clearance concentration: >100 µM
[21]
  MBC: 50 µM (≈ 21.7 µg/mL)
  MIC: 25 µM (≈ 10.8 µg/mL)
[22]
  MBC: 50 µM (≈ 21.7 µg/mL)
  MIC: 25 µM (≈ 10.8 µg/mL)
[23]; average of liver, heart, lung and kidney, vs untreated control
  reduction of average APEC load in internal organs: 1.3 logs
[23]; oral gavage twice a day, 5 days, untreated mortality (58.34%) normalized to 100%
  reduction of APEC induced mortality: 71.42%
[23]; untreated control = 100%
  reduction of APEC lesions severity (%), Air-sacs (airsacculitis): -52.9%
  reduction of APEC lesions severity (%), Heart (pericarditis): -28%
  reduction of APEC lesions severity (%), Liver (perihepatitis): 20%
  reduction of APEC lesions severity (%), Lung (lung congestion): 0%
[23]; vs untreated control
  reduction of APEC load, Heart: 1.0 log CFU/g of tissues
  reduction of APEC load, Kidney: 2.4 log CFU/g of tissues
  reduction of APEC load, Liver: 0.8 log CFU/g of tissues
  reduction of APEC load, Lung: 1.4 log CFU/g of tissues
[23]; weight of live chickens before necropsy minus weight before treatment
  Body weight gain (BWG): 220.75±38.93
[24]
  SMs intracellular APEC clearance concentration: 50^b µM
[25]
  cytological profile (confocal, FM4-64 / SYTO-9): PG synthesis inhibitors
[26]
  MBC: 50 µM (≈ 21.7 µg/mL)
  MIC: 25 µM (≈ 10.8 µg/mL)
